Assay [1] has as its system NAD(P)H oxidase subunit p47^phox. Briefly: FSGS model: Western blot of cytosolic p47^phox in kidney. It counts as in vivo, BALB/c mice. The following applies: FSGS mice, day 14 to day 21, vs control FSGS mice. As for the experimental part:
(§1) Experiments described herein were performed on 8-week-old female BALB/c mice. The FSGS mice were injected intravenously with a single dose of adriamycin (0.1 mg/10 g body weight). The mice were given Compound 1 six hours before adriamycin injection by gavage daily till sacrifice. BALB/c mice intraperitoneal injected with normal saline were used as normal controls, while ASLN mice given vehicle (corn oil) by gavage were used as disease controls. Mice were killed at day 7, 14, or 21 after disease induction, and spleen, renal cortical tissue, and blood samples collected and stored appropriately until analysis. All animal experiments were performed with the ethical approval of the Institutional Animal Care and Use Committee of The National Defense Medical Center, Taiwan and performed according to the ethical rules in the NIH Guide for the Care and Use of Laboratory Animals.
The preparation of cytoplasmic and nuclear proteins of renal tissues was extracted using the Nuclear Extract Kit (Active Motif, Tokyo, Japan) according to the manufacturer's instructions. Target proteins in the cytoplasmic and/or nuclear fractions of kidney tissue were measured by Western blot analysis using rabbit antibodies against mouse Nrf2, or p47^phox (Santa Cruz). […]

For assay [2], the system named is NF-κB p65. Description: FSGS model: renal NF-κB activation (IHC, ELISA). The assay is classed as in vivo, BALB/c mice. The following applies: FSGS mice. As for the experimental part: as §1
(§2) For IHC, formalin-fixed and paraffin-embedded renal sections were prepared and incubated with primary antibodies against mouse Desmin (Lab Vision, CA, USA), CD3 (pan-T cell; Serotec, N.C., USA), F4/80 (monocytes/macrophages; Serotec), IL-6 (R&D Systems, MN, USA), NF-κB p65 (Cell Signaling Technology, MA, USA), collagen I, III, and IV (Southern Biotech, AL, USA), or TGF-β1 (Santa Cruz Biotechnology, CA, USA), biotinylated second antibodies (Dako, Glostrup, Denmark), and avidin-biotin-peroxidase complex (Dako). Semi-quantitative evaluation of staining was performed.
Nuclear proteins were extracted using a nuclear extract kit (Active Motif, Japan). Phospho-NF-κB p65 and nuclear factor-erythroid-2-related factor 2 (NrF2) were measured in renal tissue nuclear protein extracts using Trans-AM ELISA assay kits (Active Motif), according to the manufacturer's instructions. Renal cytosolic protein extracts using RIPA buffer (Cell signaling). Cytosolic glutathione peroxidase (GPx) (Cayman, Mich.) and cytosolic heme oxygenase-1 (HO-1) (Enzo Life Sciences, NY) were measured using commercial ELISA kits according to the manufacturer's instructions. Both were expressed relative to the protein concentration in the lysate.
For orientation: ELISA stands for enzyme-linked immunosorbent assay.

Assay [3] has as its system MCP-1. Description: AcP-IgAN model: serum MCP-1 ELISA. It counts as in vivo, B cell-deficient mice. Conditions: AcP-IgAN mice, day 3 until day 28, vs control AcP-IgAN mice; only baseline levels. As for the experimental part:
(§3) B cell-deficient mice (B6.129S2-Igh-6tm1Cgn/J) were obtained from the Academia Sinica (Professor John T. Kung, Institute of Molecular Biology), and maintained at the animal center of the National Defense Medical Center, Taipei, Taiwan. AcP-IgAN was induced in the mice by daily injection of purified IgA anti-phosphorylcholine antibodies and pneumococcal C-polysaccharide (PnC) as described previously (Chao, et al., Kidney Int. 70:283-297; 2006). All animal experiments were performed with the approval of the Institutional Animal Care and Use Committee of The National Defense Medical Center, Taiwan, and were consistent with the NIH Guide for the Care and Use of Laboratory Animals.
(§4) Serum levels of IL-1β (eBiosceience, CA), IL-6 (eBiosceience), IL-18 (MBL, Japan), and MCP-1 (eBiosceience) were measured using commercial ELISA kits according to the manufacturer's instructions.

Assay [4] has as its system GPx. Briefly: FSGS model: GPx activity in the kidney. It counts as in vivo, BALB/c mice. The following applies: FSGS mice, day 7 until day 21, vs control FSGS mice. The method, then:
as §1
GPx activity in renal tissues was measured using a commercial Glutathione Peroxidase Assay kit (Cayman, Mich., USA) according to the manufacturer's instructions Enzyme activity was expressed relative to the protein concentration of glomerular homogenates.

The nature of assay [5]: FSGS model: renal histopathology (H&E). It counts as in vivo, BALB/c mice. Conditions: FSGS mice, 50 mg/kg by gavage daily, day 14 to day 21, vs control FSGS mice. The method, then:
as §1, with “The mice were given Compound 1 six hours before adriamycin injection by gavage daily till sacrifice.” left out
Formalin-fixed and paraffin-embedded renal sections were prepared as described in Shui et al. for renal pathologic evaluation. (Shui, et al., Transl Res, 150: 216-222, 2007) Renal pathology and scoring of renal lesions were performed according to the known method disclosed in Shui. […] The number of glomeruli with EPHLs was expressed as a percentage of the total number of evaluated glomeruli according to methods disclosed before (see for example, Shui, et al., Nephrol Dial Transplant, 21: 1794-1802, 2006; Ka, et al., Nephrol Dial Transplant, 21: 288-298, 2006).

In assay [6] the test system is splenocytes. Description: AcP-IgAN model: flow cytometry of T cell activation in splenocytes. The assay is classed as in vivo, B cell-deficient mice. Conditions: AcP-IgAN mice. As for the experimental part: as §3
Splenocytes from the mice were treated with Tris-buffered ammonium chloride to eliminate erythrocytes, washed, resuspended in RPMI 1640 supplemented with 10% fetal calf serum, HEPES buffer, L-glutamine, and penicillin/streptomycin (all from Invitrogen). The cells were stained with either surface marker for T or B cell activation. FITC-conjugated anti-mouse CD3, CD4, CD8, or CD19 (B cell) antibodies and phycoerythrin (PE)-conjugated anti-mouse CD69 antibodies (all from BD Biosciences) were analyzed with FACSCalibur (BD Biosciences).
On the technique in general: A flow cytometer gives signals particle by particle.

Assay [7] has as its system IL-1β. Description: AcP-IgAN model: serum IL-1β ELISA. It counts as in vivo, B cell-deficient mice. Conditions: AcP-IgAN mice, day 28, vs control AcP-IgAN mice (FIG. 15C). As for the experimental part: as §3, §4
The test system of assay [8] is collagen I, III, and IV. Briefly: FSGS model: renal collagen accumulation (IHC). It counts as in vivo, BALB/c mice. The following applies: FSGS mice. As for the experimental part:
as §1, §2

The mark [9] stands for this setting: day 3, vs control AcP-IgAN mice.
Setting [10] is: day 14 to day 21, vs control FSGS mice.

One compound from patent publication US10406120B2, “Methods and compositions for treating kidney disorders” (Golden Biotechnology Corporation, priority 2013, dated 2019) can be followed below.

Consider `COC1=C(OC)[C@H](O)[C@H](C/C=C(\C)CC/C=C(\C)CCC=C(C)C)[C@@H](C)C1=O` [Compound 1, Antroquinonol], for which the “protein levels of NAD(P)H oxidase subunit p47^phox in kidney (increase in FSGS)” value in assay [1] was “abolished”. The “nuclear protein expression of NF-κB p65 (ELISA, renal nuclear extracts)” value (“nuclear protein expression of NF-κB p65” below) in assay [2] (day 7) is reported as “no significant difference”. In assay [2] (day 14), the “nuclear protein expression of NF-κB p65” value is recorded as “slightly blocked”. Further, the “NF-κB activation, nuclear NF-κB p65 expression (IHC)” value in assay [2] (day 14 and day 21, vs control FSGS mice) is listed as “markedly inhibited”. The “nuclear protein expression of NF-κB p65” value in assay [2] (day 21) was “significantly inhibited”. Besides, in assay [3], the “serum levels of MCP-1 (elevation)” value is listed as “greatly inhibited”. Besides, the “GPx activity in the kidney” value in assay [4] is on record as “recovered GPx activity”. Also, the “progressive renal lesions (sclerotic lesions, glomeruli containing EPHL, peri-glomerular mononuclear leukocyte infiltration), H&E” value in assay [5] was “greatly reduced”. For the same compound, in assay [6] (setting [9]), the “percentage of CD3^+/CD69^+ T cells in splenocytes” value was “significant reduction”, the “percentage of CD4^+/CD69^+ T cells in splenocytes” value is reported as “no significant difference” and the “percentage of CD8^+/CD69^+ T cells in splenocytes” value was “no significant difference”. The “percentage of each of the three subtypes of T cells (CD3^+/CD69^+, CD4^+/CD69^+, CD8^+/CD69^+)” value in assay [6] (day 28) is reported as “no different from that of normal controls”. The “serum levels of IL-1β (increase)” value in assay [7] is given as “greatly inhibited”. For the same compound, in assay [8] (setting [10]), the “renal expression of collagen I (IHC)” value was “significant suppression” and the “renal expression of collagen IV (IHC)” value is recorded as “significant suppression”. Also, in assay [8] (day 21, vs control FSGS mice), the “renal expression of collagen III (IHC)” value was “significant suppression”.
